# Measurements from US8097242B2, “Target CA125 peptides for cancer immunotherapy” (The Board of Trustees of the University of Arkansas, priority 2006, dated 2012).
# Entries after “also recorded” stand apart in the source; their conditions may differ. Where no end group is shown, it is not given here.
# Columns and labels:
# [1] = tested on: autologous primary ovarian cancer cells endogenously expressing CA125
# Experimental: Cytotoxicity was tested in a 5 hr ^51Cr-release assay against autologous primary ovarian cancer target cells and unpulsed autologous LCL at different Effector cell: Target cell ratios (E:T). Blocking monoclonal antibody (MAb) against non-polymorphic HLA A, B, and C determinants (W6/32) was also used.
# Cytotoxicity was tested in a 5 hr 5 Cr-release assay against autologous primary ovarian cancer target cells and autologous LCL at a 20:1 ratio. Blocking monoclonal antibody against non-polymorphic HLA A, B, and C determinants (W6/32) was also used.
# Briefly, viable tumor tissue was mechanically minced in RPMI 1640 to portions no larger than 1-3 mm^3 and washed twice with RPMI 1640. The portions of minced tumor were then placed into 250 ml flasks containing 30 ml of enzyme solution [0.14% collagenase Type 1 and 0.01% DNAse 2000 KU/mg; (Sigma)] in RPMI 1640, and incubated on a magnetic stirring apparatus overnight at 4° C. Enzymatically dissociated tumor was then filtered through 150 μm nylon mesh to generate a single cell suspension. The resultant cell suspension was then washed twice in RPMI 1640 plus 10% FBS (fetal bovine serum). Purity of fresh tumor cultures was tested by morphology, immunochemistry staining and/or flow cytometry with antibodies against cytokeratins. Only cell lines containing more than 99% tumor cells were evaluated in cytotoxicity assays. […]
# [2] = tested on: primary ovarian cancer cells; assay: Flow cytometry of MHC class I, HLA-A2 and ICAM-1 on primary ovarian tumor cells after IFN-γ; type: cell-based, human; conditions: 500 U/ml for 48 hrs
# Experimental: Briefly, tumor cells were harvested with 0.25 percent trypsin in HBBS (Gibco, Grand Island, N.Y.) and washed once in complete medium. Cell suspensions were counted and distributed into 12×75 mm tubes at 5×10^5 cells/tube. Mouse monoclonal antibodies [anti-HLA class I (MAb W6/32); anti-HLA-A2 (BB7-2) and anti-HLA Class II (MAb CR3-43) Accurate Chemical and Scientific Corporation, Westbury, N.Y.); and anti-ICAM-1 (MAb LB-2; Becton Dickinson)] were diluted in cold assay buffer (PBS, pH 7.2, supplemented with 0.1% FCS) and added in a 50-μl volume. A mouse IgG preparation (MAb IgG2a; Becton Dickinson) was used as negative control. Tumor cells were analyzed by FACScan (Becton Dickinson) utilizing Cell Quest software (Becton Dickinson).
# In contrast, MHC class II molecule expression was negligible in all 3 primary tumor cell lines tested (data not shown).
# [3] = tested on: autologous primary ovarian cancer cells endogenously expressing TADG-12; assay: 51Cr-release cytotoxicity against autologous ovarian cancer cells expressing TADG-12; type: cell-based, human
# Experimental: FIG. 9. […] A representative experiment from patient 1 is shown.
# FIG. 10. CD8^+ CTL recognition of autologous ovarian cancer cells (i.e., K ova) endogenously expressing TADG-12 by TADG-12 P5-stimulated lymphocytes. […] A representative experiment from patient 1 is shown.
# Cryopreserved peripheral blood leukocytes (PBL) from patient # 3, harboring advanced stage ovarian cancer, have been used for the generation of DC. Monocyte-derived DC were cultured in AIM-V (Gibco-BRL) supplemented with GM-CSF and IL-4 (1). After 5 days' culture, DC maturation was induced by addition of TNFα, IL-1β and PGE2 (1). Mature DC were pulsed for 1-2 hr at 37° C. with 50 μg/ml of all 8 TADG-12-derived peptides, and washed twice before culture with PBL at a responder:stimulator ratio of 30:1. The culture medium was AIM-V plus 5% human AB serum (Gemini Bioproducts). No IL-2 was added. After 7 days, responder T cells were collected and restimulated with peptide-pulsed DC. For the second and third DC stimulations, the medium was supplemented with 50-100 U/ml IL-2, and the culture period extended to 14 days. After the third cycle, CD8+ T cells were recovered by positive selection with anti-CD8 magnetic beads (Dynal). Subsequent restimulations (passages) of CD8+ T cells used peptide-loaded autologous PBL as antigen-presenting cells.
# [4] = tested on: primary ovarian cancer cell lines; assay: Real time PCR of CA125 and TADG-12 mRNA after IFN-γ; type: cell-based, human; conditions: after exposure to IFN-γ, data not shown
# Experimental: Importantly, because tissue digestion and prolonged in vitro cell culture may potentially alter CA125 and TADG-12 antigen expression, primary ovarian cancer cell lines were evaluated before and after several in vitro passages for CA125 and TADG-12 expression by real time PCR and flow cytometry. Briefly, RNA extraction was performed on autologous primary ovarian cancer cell lines when tumor cells were 50% to 80% confluent after no passages (i.e., P0) and up to a maximum of twenty passages in vitro. RNA isolation was performed using TRIzol Reagent (Invitrogen) according to the manufacturer's instructions. To verify integrity, 4 μg of RNA from each sample was run in 1% agarose gel using 18S+28S Ribosomal RNA (Sigma) as positive control. Briefly, five μg of total RNA from each sample was reverse-transcribed using SuperScript III first strand cDNA synthesis (Invitrogen). […] Quantitative-RT-PCR was performed with an ABI Prism 7000 Sequence Analyzer using the manufacturer's recommended protocol (Applied Biosystems, Foster City, Calif.) to evaluate expression of CA125 and TADG-12 in primary tumors. […] Primers specific for 18S ribosomal RNA and empirically determined ratios of 18S competimers (Applied Biosystems) were used to control for the amount of cDNA generated from each sample. […]
# [5] = tested on: autologous LCL pulsed with CA125-derived peptides; assay: 51Cr-release cytotoxicity of peptide-specific CD8+ T cells against LCL pulsed with CA125 peptides; type: cell-based, human; conditions: CD8+ T cells from a healthy donor, autologous LCL pulsed with 50 μg/ml peptide, 5 hour 51Cr-release
# Experimental: Dendritic cells were loaded with the CA125 peptides of Table 3 and used to amplify CD8+ T cells cytotoxic against cells displaying the cognate peptide as described in Example 5. The amplified CD8+ T cell lines were tested for cytoxicity against autologous lymphoblastoid cell lines (LCL) pulsed with the CA125 peptide used to amplify the T cells. Cytotoxicity was tested in a 5 hour ^51Cr-release assay against autologous LCL and autologous LCL pulsed with 50 μg/ml peptide (5, 6). […] Natural killer (NK)-sensitive K562 cells were not lysed (data not shown).
# [6] = tested on: autologous unpulsed LCL; assay: 51Cr-release cytotoxicity against unpulsed autologous LCL; type: cell-based, human; conditions: CTL stimulated by CA125 P10-pulsed autologous DC
substance,measurement,setting,value
"FMVPFTLNFT [P11 CA125/10, FMVPfTLNFT]",cytotoxicity against autologous primary ovarian cancer cells endogenously expressing CA125,[1],"Unlike peptides 7, 11 and 12, only the CA125 YTLDrDSLYV (SEQ ID NO:10) peptide (P10) was found to be reliably cytotoxic"
IFN-γ: Cytokine to which primary ovarian tumor cells were exposed (500 U/ml for 48 hrs),"MHC class I, HLA-A2 and ICAM-1 expression levels",[2],markedly up-regulate
same,effect of IFN-γ exposure of tumor cells on recognition and killing by peptide-specific CTL,[3]; exposure for 48 hrs,further increased recognition and killing of autologous ovarian cancer cells; also recorded: significantly increase the cytotoxic activity
same,expression levels of CA125 and TADG-12 mRNA,[4],did not detect any change
LLMPfTLNFT (LLMPFTLNFT; listed as Homo sapiens) [P9 CA125/10],% Lysis,[5],0%
"TLLVTGTSRV [P12 CA125/10, TLLVtGTSRV]",cytotoxicity against autologous primary ovarian cancer cells endogenously expressing CA125,[1],"Unlike peptides 7, 11 and 12, only the CA125 YTLDrDSLYV (SEQ ID NO:10) peptide (P10) was found to be reliably cytotoxic"
"YLPKSWTIQV [P5 TADG12/10, YLPKsWTIQV]",cytotoxicity against autologous primary ovarian cancer cells endogenously expressing TADG-12,"[3]; TADG-12 peptides, CTL stimulated by peptide-pulsed DC, 5 hr 51Cr-release, listed as SEQ ID NO: 17",consistently lyse autologous ovarian tumor cells expressing TADG-12
"YTLDRDSLYV [P10 CA125/10, YTLDrDSLYV]",cytotoxicity against autologous unpulsed LCL,[6],not against autologous unpulsed LCL
